Assays:
Assay type in all cases: biochemical
[1] = target: NRAS G12C (Homo sapiens (Human), UniProt P01111+P62937, G12C); experiment: Ras-Raf (BRAF RBD) disruption / FRET / MOA assay, NRAS G12C; conditions: read-out: IC50* NRAS G12C FRET data
Procedure, shortened: (§1)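 Ras:RAF disruption was scored as a fall in TR-FRET ratio relative to DMSO. Compound ranged in 3-fold steps over 10 points from 30 μM final; incubation ran 3 h at 25° C, detection antibodies a further 1.5 h. Reported as IC50.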

[2] = target: K-Ras G13C (Homo sapiens (Human), UniProt P01116+P62937, G13C); experiment: Ras-Raf (BRAF RBD) disruption / FRET / MOA assay, KRAS G13C; conditions: KRAS G13C; Ras-Raf disruption/FRET/MOA assay; read-out: IC50* KRAS G13C FRET data
Procedure, shortened: as §1

[3] = target: KRAS G13D (Homo sapiens (Human), UniProt P01116+P62937, G13D); experiment: Ras-Raf (BRAF RBD) disruption / FRET / MOA assay, KRAS G13D; conditions: read-out: IC50* KRAS G13D FRET data
Procedure, shortened: as §1

[4] = target: KRAS Q61H (Homo sapiens (Human), UniProt P01116+P62937, Q61H); experiment: Ras-Raf (BRAF RBD) disruption / FRET / MOA assay, KRAS Q61H; conditions: Ras-Raf disruption/FRET/MOA assay; class symbols; read-out: KRAS Q61H FRET data IC50
Procedure, shortened: (§2)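 TR-FRET disruption of nucleotide-loaded Ras binding to BRAF RBD via compound-driven ternary complex with cyclophilin A. Compound as 10-point 3-fold series from 30 μM final, 3 h at 25° C, then anti-His Eu-W1024 (10 nM) and anti-GST allophycocyanin (50 nM) for 1.5 h. IC50 from decreased FRET ratio versus DMSO.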

[5] = target: NRAS Q61K (Homo sapiens (Human), UniProt P01111+P62937, Q61K); experiment: Ras-Raf (BRAF RBD) disruption / FRET / MOA assay, NRAS Q61K; conditions: NRAS Q61K; Ras-Raf disruption/FRET/MOA assay; read-out: IC50* NRAS Q61K FRET data
Procedure, shortened: as §2

[6] = target: NRAS WT (Homo sapiens (Human), UniProt P01111+P62937); experiment: Ras-Raf (BRAF RBD) disruption / FRET / MOA assay, NRAS WT; conditions: read-out: IC50* NRAS WT FRET data
Procedure, shortened: as §2

[7] = target: K-Ras G12C (Homo sapiens (Human), UniProt P01116+P62937, G12C); experiment: Ras-Raf (BRAF RBD) disruption / FRET / MOA assay, KRAS G12C; conditions: KRAS G12C; Ras-Raf disruption/FRET/MOA assay; read-out: IC50* KRAS G12C FRET data
Procedure, shortened: as §1

[8] = target: KRAS G12V (Homo sapiens (Human), UniProt P01116+P62937, G12V); experiment: Ras-Raf (BRAF RBD) disruption / FRET / MOA assay, KRAS G12V; conditions: read-out: IC50* KRAS G12V FRET data
Procedure, shortened: as §1

[9] = target: NRAS Q61R (Homo sapiens (Human), UniProt P01111+P62937, Q61R); experiment: Ras-Raf (BRAF RBD) disruption / FRET / MOA assay, NRAS Q61R; conditions: NRAS Q61R; Ras-Raf disruption/FRET/MOA assay; read-out: IC50* NRAS Q61R FRET data
Procedure, shortened: as §2

Sequence of K-Ras G13C (P01116-2 other isoform, or with tags, fused parts or gaps G13C): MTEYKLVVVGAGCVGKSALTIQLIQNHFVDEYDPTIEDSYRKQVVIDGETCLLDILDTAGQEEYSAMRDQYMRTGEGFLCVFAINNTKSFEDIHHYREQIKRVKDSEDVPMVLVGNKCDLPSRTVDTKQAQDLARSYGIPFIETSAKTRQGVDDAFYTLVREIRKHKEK
Sequence of K-Ras G13C (P62937 whole entry): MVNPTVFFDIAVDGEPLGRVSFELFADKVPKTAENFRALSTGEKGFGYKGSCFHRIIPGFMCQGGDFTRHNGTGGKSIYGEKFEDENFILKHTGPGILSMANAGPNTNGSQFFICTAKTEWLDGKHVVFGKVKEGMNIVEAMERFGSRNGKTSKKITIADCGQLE
Sequence of K-Ras G12C (P01116-2 other isoform, or with tags, fused parts or gaps G12C): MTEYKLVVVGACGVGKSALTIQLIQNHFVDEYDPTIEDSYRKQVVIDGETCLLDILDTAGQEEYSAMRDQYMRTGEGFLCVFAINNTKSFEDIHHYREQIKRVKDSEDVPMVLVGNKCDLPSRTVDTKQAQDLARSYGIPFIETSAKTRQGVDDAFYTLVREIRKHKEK
Sequence of K-Ras G12C (P62937 whole entry): as the sequence (P62937 whole entry) above
Sequence of NRAS Q61R (P01111 whole entry Q61R): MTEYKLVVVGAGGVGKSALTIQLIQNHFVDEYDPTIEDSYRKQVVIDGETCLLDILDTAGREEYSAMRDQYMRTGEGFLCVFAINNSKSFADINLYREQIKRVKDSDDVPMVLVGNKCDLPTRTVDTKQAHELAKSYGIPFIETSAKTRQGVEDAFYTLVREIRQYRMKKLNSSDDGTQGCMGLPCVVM
Sequence of NRAS Q61R (P62937 whole entry): as the sequence (P62937 whole entry) above
Sequence of NRAS WT (P01111 whole entry): as the sequence (P01111 whole entry Q61R) above, with R61Q counted along it
Sequence of NRAS WT (P62937 whole entry): as the sequence (P62937 whole entry) above
Sequence of KRAS G12V (P01116-2 other isoform, or with tags, fused parts or gaps G12V): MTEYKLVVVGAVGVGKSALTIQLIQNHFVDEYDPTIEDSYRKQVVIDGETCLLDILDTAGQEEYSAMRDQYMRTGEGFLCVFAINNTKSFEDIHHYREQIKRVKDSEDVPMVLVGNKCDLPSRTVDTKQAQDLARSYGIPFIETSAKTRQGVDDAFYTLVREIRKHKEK
Sequence of KRAS G12V (P62937 whole entry): as the sequence (P62937 whole entry) above
Sequence of NRAS G12C (P01111 whole entry G12C): as the sequence (P01111 whole entry Q61R) above, with G12C, R61Q counted along it
Sequence of NRAS G12C (P62937 whole entry): as the sequence (P62937 whole entry) above
Sequence of NRAS Q61K (P01111 whole entry Q61K): as the sequence (P01111 whole entry Q61R) above, with R61K counted along it
Sequence of NRAS Q61K (P62937 whole entry): as the sequence (P62937 whole entry) above
Sequence of KRAS Q61H (P01116-2 other isoform, or with tags, fused parts or gaps Q61H): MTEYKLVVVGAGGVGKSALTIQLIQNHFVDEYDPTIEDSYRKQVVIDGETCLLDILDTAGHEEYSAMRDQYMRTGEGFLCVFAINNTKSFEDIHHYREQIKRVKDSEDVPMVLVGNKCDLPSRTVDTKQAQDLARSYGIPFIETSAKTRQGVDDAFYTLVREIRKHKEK
Sequence of KRAS Q61H (P62937 whole entry): as the sequence (P62937 whole entry) above
Sequence of KRAS G13D (P01116-2 other isoform, or with tags, fused parts or gaps G13D): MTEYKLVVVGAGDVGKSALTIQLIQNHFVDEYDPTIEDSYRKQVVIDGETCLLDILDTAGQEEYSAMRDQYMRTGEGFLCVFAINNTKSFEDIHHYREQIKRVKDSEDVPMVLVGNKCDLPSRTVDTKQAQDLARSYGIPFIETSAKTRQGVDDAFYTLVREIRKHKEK
Sequence of KRAS G13D (P62937 whole entry): as the sequence (P62937 whole entry) above

| Structure (SMILES) | IC50 [1] | IC50 [2] | IC50 [3] | IC50 [4] | IC50 [5] | IC50 [6] | IC50 [7] | IC50 [8] | IC50 [9] |
| --- | --- | --- | --- | --- | --- | --- | --- | --- | --- |
| CCn1c(-c2cccnc2[C@H](C)OC)c2c3cc(ccc31)-c1cnc(o1)C[C@H](NC(=O)[C@H](C(C)C)N(C)C(=O)[C@H]1CCN(C(=O)C#CC(C)(C)N(C)C)C1)C(=O)N1CCC[C@H](N1)C(=O)OCC(C)(C)C2 (atropisomer, axis not shown) [Example A692, (3S)-1-(4-(dimethylamino)-4-methylpent-2-ynoyl)-N-((2S)-1-(((6^3S,4S)-1^1-ethyl-1^2-(2-((S)-1-methoxyethyl)pyridin-3-yl)-10,10-dimethyl-5,7-dioxo-6^1,6^2,6^3,6^4,6^5,6^6-hexahydro-1^1H-8-oxa-2(5,2)-oxazola-1(5,3)-indola-6(1,3)-pyridazinacycloundecaphane-4-yl)amino)-3-methyl-1-oxobutan-2-yl)-N-methylpyrrolidine-3-carboxamide] | < 10 nM | 100 to 1000 nM | > 10000 nM | 1000 to 10000 nM | > 10000 nM | > 10000 nM | < 10 nM | 1000 to 10000 nM | > 10000 nM |
| C=CC(=O)N1CCOC2(CCN(C(=O)N(C)[C@H](C(=O)N[C@H]3Cc4nc(cs4)-c4ccc5c(c4)c(c(-c4cccnc4[C@H](C)OC)n5CC)CC(C)(C)COC(=O)[C@@H]4CCCN(N4)C3=O)C(C)C)CC2)C1 (atropisomer, axis not shown) [Example A695] | 10 to 100 nM | 10 to 100 nM | 100 to 1000 nM | 100 to 1000 nM | 100 to 1000 nM | 100 to 1000 nM | 100 to 1000 nM | 100 to 1000 nM | 100 to 1000 nM |
| C=CC(=O)N1CCC2(CC1)CCN(C(=O)N(C)[C@H](C(=O)N[C@H]1Cc3nc(cs3)-c3ccc4c(c3)c(c(-c3cccnc3[C@H](C)OC)n4CC)CC(C)(C)COC(=O)[C@@H]3CCCN(N3)C1=O)C(C)C)CC2 (atropisomer, axis not shown) [Example A697] | 10 to 100 nM | 100 to 1000 nM | 100 to 1000 nM | 10 to 100 nM | 10 to 100 nM | 10 to 100 nM | 10 to 100 nM | 100 to 1000 nM | 10 to 100 nM |
| C=CC(=O)N1CCC(F)(C(=O)N(C)[C@H](C(=O)N[C@H]2Cc3nc(cs3)-c3ccc4c(c3)c(c(-c3cccnc3[C@H](C)OC)n4CC)CC(C)(C)COC(=O)[C@@H]3CCCN(N3)C2=O)C(C)C)CC1 (atropisomer, axis not shown) [Example A700] | 10 to 100 nM | 100 to 1000 nM | 100 to 1000 nM | 100 to 1000 nM | 100 to 1000 nM | 100 to 1000 nM | 10 to 100 nM | 100 to 1000 nM | 100 to 1000 nM |
| C=CC(=O)N1CCO[C@H]2CN(C(=O)N(C)[C@H](C(=O)N[C@H]3Cc4nc(cs4)-c4ccc5c(c4)c(c(-c4cccnc4[C@H](C)OC)n5CC)CC(C)(C)COC(=O)[C@@H]4CCCN(N4)C3=O)C(C)C)C[C@H]21 (atropisomer, axis not shown) [Example A706] | 10 to 100 nM | 10 to 100 nM | 1000 to 10000 nM | 100 to 1000 nM | 100 to 1000 nM | 1000 to 10000 nM | 10 to 100 nM | 1000 to 10000 nM | 100 to 1000 nM |
| CO[C@@H](C)c1ncccc1-c1c2c3cc(ccc3n1CC(F)(F)F)-c1cnc(o1)C[C@H](NC(=O)[C@H](C(C)C)N(C)C(=O)[C@H]1CCN(C(=O)C#CC(C)(C)N(C)C)C1)C(=O)N1CCC[C@H](N1)C(=O)OCC(C)(C)C2 (atropisomer, axis not shown) [Example A707] | < 10 nM | 100 to 1000 nM | 1000 to 10000 nM | 1000 to 10000 nM | > 10000 nM | 1000 to 10000 nM | < 10 nM | 1000 to 10000 nM | > 10000 nM |
| CO[C@@H](C)c1ncccc1-c1c2c3nc(ccc3n1CC(F)(F)F)-c1cccc(c1)C[C@H](NC(=O)[C@@H](COC1CN(C(=O)C#CC(C)(C)N(C)C)C1)C(C)C)C(=O)N1CCC[C@H](N1)C(=O)OCC(C)(C)C2 (atropisomer, axis not shown) [Example A724] | 10 to 100 nM | > 10000 nM | > 10000 nM | > 10000 nM | > 10000 nM | > 10000 nM | 10 to 100 nM | > 10000 nM | > 10000 nM |
| CCn1c(-c2cccnc2[C@H](C)OC)c2c3cc(ccc31)-c1cccc(c1)C[C@H](NC(=O)[C@H](C(C)C)N1CO[C@@]3(CCN(C(=O)C#CC(C)(C)N4CCC4)C3)C1=O)C(=O)N1CCC[C@H](N1)C(=O)OCC(C)(C)C2 (atropisomer, axis not shown) [Example A733] | 10 to 100 nM | 100 to 1000 nM | > 10000 nM | 1000 to 10000 nM | > 10000 nM | > 10000 nM | 10 to 100 nM | 1000 to 10000 nM | > 10000 nM |
| C=CC(=O)N1CCN(C(=O)N(C)[C@H](C(=O)N[C@H]2Cc3nc(cs3)-c3ccc4c(c3)c(c(-c3cccnc3[C@H](C)OC)n4CC)CC(C)(C)COC(=O)[C@@H]3CCCN(N3)C2=O)C(C)C)[C@@H]2C[C@@H]21 (atropisomer, axis not shown) [Example A736] | 10 to 100 nM | 10 to 100 nM | 100 to 1000 nM | 10 to 100 nM | 10 to 100 nM | 10 to 100 nM | 10 to 100 nM | 100 to 1000 nM | 10 to 100 nM |
| C=CC(=O)C1CC[C@H](C(=O)N(C)[C@H](C(=O)N[C@H]2Cc3cc(O)cc(c3)-c3ccc4c(c3)c(c(-c3cnn(C)c3[C@H](C)OC)n4CC)CC(C)(C)COC(=O)[C@@H]3CCCN(N3)C2=O)C(C)C)C1 (stereo partly drawn) [Example A166] | 10 to 100 nM | 100 to 1000 nM | 1000 to 10000 nM | 100 to 1000 nM | 1000 to 10000 nM | 100 to 1000 nM | 10 to 100 nM | 100 to 1000 nM | 1000 to 10000 nM |
| C=CC(=O)N1CC[C@H](C(=O)N(C)[C@H](C(=O)N[C@H]2Cc3cc(O)cc(c3)-c3ccc4c(c3)c(c(-c3cncc5c3[C@@H](OC)CC5)n4CC)CC(C)(C)COC(=O)[C@@H]3CCCN(N3)C2=O)C(C)C)C1 [Example A275] | 10 to 100 nM | 10 to 100 nM | 100 to 1000 nM | 10 to 100 nM | 100 to 1000 nM | 10 to 100 nM | 10 to 100 nM | 10 to 100 nM | 100 to 1000 nM |
| C=CC(=O)N1CC[C@H](C(=O)N(C)[C@H](C(=O)N[C@H]2Cc3nc(ns3)-c3ccc4c(c3)c(c(-c3cncnc3)n4CC)CC(C)(C)COC(=O)[C@@H]3CCCN(N3)C2=O)C(C)C)C1 [Example A285] | > 10000 nM | > 10000 nM | > 10000 nM | > 10000 nM | > 10000 nM | > 10000 nM | > 10000 nM | > 10000 nM | > 10000 nM |
| C=CC(=O)N1CC[C@H](C(=O)N(C)[C@H](C(=O)N[C@H]2Cc3cc(O)cc(c3)-c3ccc4c(c3)c(c(-c3cnn5c3[C@@H](OC)CCC5)n4CC)CC(C)(C)COC(=O)[C@@H]3CCCN(N3)C2=O)C(C)C)C1 [Example A300] | < 10 nM | 10 to 100 nM | 10 to 100 nM | 10 to 100 nM | 100 to 1000 nM | 10 to 100 nM | < 10 nM | 10 to 100 nM | 100 to 1000 nM |
